Measurements published in patent publication US7300946B2, “N-(substituted arylmethyl)-4-(disubstituted methyl) piperidines and pyridines” (Bayer CropScience AG, priority 2002, dated 2007).

Test system: tobacco budworm (Heliothis virescens [Fabricius])
Assay: surface-treated diet test against the tobacco budworm
Format: in vivo
Details: tobacco budworm second instar larvae, 0.25 millimoles of candidate insecticide on the surface of the diet, five-day exposure; for Percent Mortality: compared to total number of insects infested; for Percent Growth Inhibition: inhibition of insect weight relative to untreated controls
Protocol: Candidate insecticides were evaluated for activity against the tobacco budworm (Heliothis virescens [Fabricius]) in a surface-treated diet test.
In this test one mL of molten (65–70° C.) wheat germ-based artificial diet was pipetted into each well of a four by six (24 well) multi-well plate (ID# 430345-15.5 mm dia.×17.6 mm deep; Corning Costar Corp., One Alewife Center, Cambridge, Mass. 02140). The diet was allowed to cool to ambient temperature before treatment with candidate insecticide.
For a determination of insecticidal activity, solutions of the candidate insecticides were prepared for testing using a Packard 204DT Multiprobe® Robotic System (Packard Instrument Company, 800 Research Parkway, Meriden, Conn. 06450), in which the robot first diluted a standard 50 millimolar DMSO solution of candidate insecticide with a 1:1 water/acetone solution (V/V) in a ratio of 1:7 stock solution to water/acetone. The robot subsequently pipetted 40 microliters of the so-prepared solution onto the surface of the diet in each of three wells in the 24 multi-well plate. The process was repeated with solutions of seven other candidate insecticides. Once treated, the contents of the multi-well plate were allowed to dry, leaving 0.25 millimoles of candidate insecticide on the surface of the diet, or a concentration of 0.25 millimolar. Appropriate untreated controls containing only DMSO on the diet surface were also included in this test. […]
In each well of the test plate was placed one second instar tobacco budworm larvea, each weighing approximately five milligrams. After the larvae were placed in each well, the plate was sealed with clear polyfilm adhesive tape. The tape over each well was perforated to ensure an adequate air supply. The plates were then held in a growth chamber at 25° C. and 60% relative humidity for five days (light 14 hours/day).
After the five-day exposure period insecticidal activity for each rate of application of candidate insecticide was assessed as percent inhibition of insect weight relative to the weight of insects from untreated controls, and percent mortality when compared to the total number of insects infested.
The test compounds of formula I are identified by numbers that correspond to those in Table 1.
These tests were conducted with 0.25 millimoles of candidate insecticide on the surface of the diet.

Row | SMILES | Percent Mortality (surface-treated diet) | Percent Growth Inhibition (surface-treated diet) | Percent Mortality | Percent Growth Inhibition
1 | CCON=Cc1ccc(CN2CCC(C(OC(=O)Nc3cccc(Cl)c3Cl)c3ccc(C(F)(F)F)cc3)CC2)cc1 (stereo not drawn) [Compound 188] | 100% | 100% | – | –
2 | CCn1nnc(-c2ccc(CN3CCC(C(OC(=O)Nc4ccc(Cl)cc4)c4cccc(F)c4)CC3)cc2)n1 (stereo not drawn) [Compound 582] | 100% | 100% | – | –
3 | O=C(Nc1ccccc1)OC(c1ccc(C(F)(F)F)cc1)C1CCN(Cc2ccc(Oc3ccccn3)cc2)CC1 (stereo not drawn) [Compound 657] | 100% | 100% | – | –
4 | Clc1ccc(C(=C2CCN(Cc3ccc(Oc4ncccn4)cc3)CC2)c2ccc(Cl)c(Cl)c2)cc1Cl [Compound 813] | – | – | 100% | 100%
5 | CC(C)OC(=O)Nc1ccc(CN2CCC(C(OC(=O)Nc3cccc(F)c3)c3ccc(Cl)cc3)CC2)cc1 (stereo not drawn) [Compound 501] | 100% | 100% | – | –
6 | CCON=Cc1ccc(CN2CCC(C(OC(=O)Nc3c(F)c(F)c(F)c(F)c3F)c3ccc(C(F)(F)F)cc3)CC2)cc1 (stereo not drawn) [Compound 202] | 100% | 100% | – | –
7 | CCn1nnc(-c2ccc(CN3CCC(C(OC(=O)Nc4cc(F)cc(F)c4)c4ccc(OC)cc4)CC3)cc2)n1 (stereo not drawn) [Compound 604] | 100% | 100% | – | –
8 | Cn1nnc(-c2ccc(C[N+]3([O-])CCC(C(OC(=O)Nc4ccc(F)cc4)c4ccc(OC(F)(F)F)cc4)CC3)cc2)n1 (stereo not drawn) [Compound 400] | 100% | 100% | – | –
9 | CCn1nnc(-c2ccc(CN3CCC(C(OC(=O)Nc4ccc(F)c(F)c4)c4ccc(C)cc4)CC3)cc2)n1 (stereo not drawn) [Compound 597] | 100% | 100% | – | –
10 | CCON=Cc1ccc(CN2CCC(C(OC(=O)Nc3cc(F)cc(F)c3)c3ccc(C(F)(F)F)cc3)CC2)cc1 (stereo not drawn) [Compound 200] | 100% | 100% | – | –
11 | CC(C)OC(=O)Nc1ccc(CN2CCC(=C(c3ccc(F)cc3)c3ccc(F)cc3)CC2)cc1 [Compound 794] | – | – | 83% | 100%
12 | O=C(Nc1cc(F)cc(F)c1)OC(c1ccc(Cl)c(Cl)c1)C1CCN(Cc2ccc(Oc3ccccn3)cc2)CC1 (stereo not drawn) [Compound 647] | 100% | 100% | – | –
13 | O=C(Nc1cc(F)cc(F)c1)OC(c1ccc(OC(F)(F)F)cc1)C1CCN(Cc2ccc(Cl)cc2)CC1 (stereo not drawn) [Compound 460] | 0% | 100% | – | –
14 | FC(F)(F)c1ccc(C(=C2CCN(Cc3ccc(Oc4ncccn4)cc3)CC2)c2cccc(Cl)c2)cc1 [Compound 815] | – | – | 100% | 100%
15 | O=C(Nc1cccc(C(F)(F)F)c1)OC(c1cccc(C(F)(F)F)c1)C1CCN(Cc2ccc(Oc3ccccn3)cc2)CC1 (stereo not drawn) [Compound 655] | 100% | 100% | – | –
16 | CCn1nnc(-c2ccc(CN3CCC(C(OC(=O)Nc4cc(C(F)(F)F)cc(C(F)(F)F)c4)c4ccc(C(F)(F)F)cc4)CC3)cc2)n1 (stereo not drawn) [Compound 293] | 17% | 93% | – | –
17 | FC(F)(F)c1ccc(C(=C2CCN(Cc3ccc(Oc4ncccn4)cc3)CC2)c2ccc(C(F)(F)F)cc2)cc1 [Compound 824] | – | – | 100% | 100%
18 | CC(C)(C)C(=O)Nc1ccc(CN2CCC(C(OC(=O)Nc3cc(F)cc(F)c3)c3ccc(C(F)(F)F)cc3)CC2)cc1 (stereo not drawn) [Compound 497] | 17% | 100% | – | –

Row | SMILES | Percent Mortality (surface-treated diet) | Percent Growth Inhibition (surface-treated diet) | Percent Mortality | Percent Growth Inhibition
19 | CN(C(=O)OC(c1ccc(Cl)cc1)C1CCN(Cc2ccc(Oc3ccccn3)cc2)CC1)c1ccc(C(F)(F)F)cc1 (stereo not drawn) [Compound 636] | 100% | 100% | – | –
20 | O=C(Nc1cc(F)cc(F)c1)OC(c1ccc(C(F)(F)F)cc1)C1CC[N+]([O-])(Cc2ccc(Oc3ccc(Cl)nn3)cc2)CC1 (stereo not drawn) [Compound 768] | – | – | 100% | 100%
21 | Cn1nnc(-c2ccc(CN3CCC(C(OC(=O)Nc4ccccc4Cl)c4ccc(OC(F)(F)F)cc4)CC3)cc2)n1 (stereo not drawn) [Compound 262] | 100% | 100% | – | –
22 | CCCOc1ccc(CN2CCC(C(OC(=O)Nc3cc(F)cc(F)c3)c3ccc(C(F)(F)F)cc3)CC2)cc1 (stereo not drawn) [Compound 491] | 100% | 100% | – | –
23 | CS(=O)(=O)Oc1ccc(CN2CCC(=C(c3ccc(C(F)(F)F)cc3)c3ccc(C(F)(F)F)cc3)CC2)cc1 [Compound 803] | – | – | 100% | 100%
24 | CCn1nnc(-c2ccc(CN3CCC(C(OC(=O)Nc4ccc(F)cc4)c4ccc(OC(F)(F)F)cc4)CC3)cc2)n1 (stereo not drawn) [Compound 277] | 100% | 100% | – | –
25 | O=C(Nc1ccc(Cl)cn1)OC(c1ccc(C(F)(F)F)cc1)C1CCN(Cc2ccc(Oc3ccccn3)cc2)CC1 (stereo not drawn) [Compound 439] | 100% | 100% | – | –
26 | COc1ccc(NC(=O)OC(c2ccc(C(F)(F)F)cc2)C2CCN(Cc3ccc(Oc4ccccn4)cc3)CC2)cc1Cl (stereo not drawn) [Compound 699] | 100% | 100% | – | –
27 | [O-][N+]1(Cc2ccc(Oc3ncccc3C(F)(F)F)cc2)CCC(=C(c2ccc(C(F)(F)F)cc2)c2ccc(C(F)(F)F)cc2)CC1 (stereo not drawn) [Compound 109] | 100% | 100% | – | –
28 | CCn1nnc(-c2ccc(CN3CCC(C(OC(=O)Nc4ccc(Cl)cc4)c4ccc(-c5ccccc5)cc4)CC3)cc2)n1 (stereo not drawn) [Compound 611] | 83% | 100% | – | –
29 | CCON=Cc1ccc(CN2CCC(C(OC(=O)Nc3ccc(F)cc3F)c3ccc(C(F)(F)F)cc3)CC2)cc1 (stereo not drawn) [Compound 193] | 100% | 100% | – | –
30 | CCN(CC)S(=O)(=O)c1ccc(CN2CCC(C(OC(=O)Nc3cc(F)cc(F)c3)c3ccc(C(F)(F)F)cc3)CC2)cc1 (stereo not drawn) [Compound 541] | 0% | 59% | – | –
31 | CCNC(=O)OC(c1ccc(C(F)(F)F)cc1)C1CCN(Cc2ccc(Oc3ccccn3)cc2)CC1 (stereo not drawn) [Compound 774] | – | – | 0% | 98%
32 | O=C(Nc1ccc(Cl)cc1)OC(c1cc(Cl)cc(Cl)c1)C1CCN(Cc2ccc(Oc3ncccn3)cc2)CC1 (stereo not drawn) [Compound 726] | – | – | 100% | 100%
33 | O=C(NCc1ccc(F)cc1)OC(c1ccc(C(F)(F)F)cc1)C1CCN(Cc2ccc(Oc3ccccn3)cc2)CC1 (stereo not drawn) [Compound 676] | 100% | 100% | – | –
34 | CCOC(=O)Nc1ccc(CN2CCC(=C(c3ccc(C(F)(F)F)cc3)c3ccc(C(F)(F)F)cc3)CC2)cc1 [Compound 55, N-{4-[(4-{bis[4-(trifluoromethyl)phenyl]methylene}piperidyl)methyl]phenyl}ethoxycarboxamide] | 100% | 100% | – | –
35 | O=C(Nc1cc(F)cc(F)c1)OC(c1ccc(OC(F)(F)F)cc1)C1CCN(Cc2ccc(Oc3cccc[n+]3[O-])cc2)CC1 (stereo not drawn) [Compound 709] | – | – | 100% | 100%
36 | CCn1nnc(-c2ccc(CN3CCC(C(OC(=O)Nc4ccc(Cl)cc4Cl)c4ccc(C(F)(F)F)cc4)CC3)cc2)n1 (stereo not drawn) [Compound 280] | 100% | 100% | – | –
